The results in this text go back to PubChem BioAssay (NCI).

Among the test systems are M14 melanoma; K-562 leukemia; KM12 colon; HCC-2998 colon; NCI-H460 lung; UACC-62 melanoma; SK-OV-3 ovarian; NCI-H226 lung; MDA-MB-231 breast.
Common to all, as to assay: NCI tumour cell line growth inhibition, 48 h

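Results reflect a 48-hour exposure of cells in 96-well plates to compound at five concentrations. GI50 marks 50% less growth. TGI is the concentration that stops growth completely.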

Regarding `CSc1n[n+]2c(s1)SCCC2`, the TGI in the assay with M14 melanoma, in the assay with K-562 leukemia, in the assay with KM12 colon, in the assay with HCC-2998 colon, with NCI-H460 lung and in the assay with UACC-62 melanoma was > 100 µM in each case.

In the case of `FC(F)(F)C1(Br)C(c2ccccc2)=C1c1ccccc1`, the TGI is 35 µM with M14 melanoma; 28.2 µM in the assay with K-562 leukemia; 29.4 µM in the assay on KM12 colon; > 100 µM with SK-OV-3 ovarian; 46.3 µM in the assay on NCI-H226 lung; 38.4 µM in the assay on HCC-2998 colon. For the same compound, the TGI in the assay on NCI-H460 lung amounted to 80.1 µM; with UACC-62 melanoma, 30.8 µM.

For `CCOC(=N)/C(=C1\OC(N)=C(c2ccc(Cl)cc2)C1=O)c1ccc(Cl)cc1`, the TGI with M14 melanoma is 31.6 µM; in the assay on K-562 leukemia, 53.6 µM; in the assay on KM12 colon it was 34.4 µM; in the assay on SK-OV-3 ovarian, > 100 µM; in the assay with NCI-H226 lung, 49.9 µM; in the assay with HCC-2998 colon it was 32.7 µM. The TGI was determined as 46 µM in the assay with NCI-H460 lung and 29 µM with UACC-62 melanoma.

Take `COC1=CC(=O)C2C(C1=O)C(c1ccccc1)[C@H]2C` (some centres undefined): the TGI with M14 melanoma, in the assay on K-562 leukemia, with KM12 colon, in the assay on SK-OV-3 ovarian, in the assay with HCC-2998 colon and in the assay with NCI-H460 lung was > 100 µM throughout. The TGI in the assay on UACC-62 melanoma was > 100 µM.

As for `C[N+](C)(C)CC(=O)N/N=C(\C(=O)NC1=C(Cl)C(=O)c2ccccc2C1=O)C(C#N)c1csc(-c2ccc([N+](=O)[O-])cc2)n1` (centres undefined), the TGI with M14 melanoma, with K-562 leukemia, in the assay with KM12 colon, in the assay with SK-OV-3 ovarian, in the assay on NCI-H226 lung and with HCC-2998 colon was > 100 µM each time. For the same compound, the TGI with NCI-H460 lung and in the assay on UACC-62 melanoma was > 100 µM each time.

Turning to `CCOc1cccc2ccc[n+](CC)c12`, the TGI in the assay with M14 melanoma, in the assay on K-562 leukemia, in the assay on KM12 colon, in the assay with SK-OV-3 ovarian, with NCI-H226 lung and in the assay on HCC-2998 colon was > 100 µM each time. The TGI in the assay on NCI-H460 lung and with UACC-62 melanoma was > 100 µM throughout.

As to `COC(=O)C1[C@H](c2cc(OC)c(OC)c(OC)c2)OC(=O)C1(C(=O)OC)C(=O)c1ccc2c(c1)OCO2` (some centres undefined), the TGI in the assay on M14 melanoma, with K-562 leukemia, in the assay on KM12 colon, in the assay with SK-OV-3 ovarian, with NCI-H226 lung and in the assay on HCC-2998 colon was > 100 µM in each case. Further, the TGI in the assay with NCI-H460 lung and in the assay on UACC-62 melanoma was > 100 µM throughout.

On to `N#C/C(=C1\SC(N=Nc2ccccc2)C(=O)N1c1ccccc1)c1nc2ccccc2[nH]1` (centres undefined), for which the TGI with M14 melanoma, with K-562 leukemia, with SK-OV-3 ovarian, in the assay with NCI-H226 lung, in the assay with NCI-H460 lung and in the assay on UACC-62 melanoma was > 100 µM each time.

Take `CC(C)(C)C(=O)OCC1CCC(n2cnc3c(=O)[nH]c(N)nc32)O1` (centres undefined): the TGI in the assay with M14 melanoma, in the assay on K-562 leukemia, with KM12 colon, in the assay with SK-OV-3 ovarian, in the assay on NCI-H226 lung and in the assay with HCC-2998 colon was > 100 µM throughout. Moreover, the TGI in the assay with NCI-H460 lung and in the assay on UACC-62 melanoma was > 100 µM in each case.

`Cc1cn2c(/C=N/N=C(N)N)c(-c3cccs3)nc2s1`: the GI50 was 1.9 µM with MDA-MB-231 breast; 1.63 µM in the assay on M14 melanoma; 2.06 µM with K-562 leukemia; 2.39 µM in the assay on KM12 colon; 17.5 µM in the assay on SK-OV-3 ovarian; 4.18 µM with NCI-H226 lung. In addition, the GI50 with HCC-2998 colon was 1.77 µM; in the assay on NCI-H460 lung, 5.46 µM; with UACC-62 melanoma, 1.64 µM. The TGI came out at 5.79 µM in the assay with MDA-MB-231 breast; 3.01 µM in the assay with M14 melanoma; 5.43 µM with K-562 leukemia; 8.3 µM in the assay on KM12 colon; 37.6 µM in the assay with SK-OV-3 ovarian; 18.9 µM with NCI-H226 lung. The TGI with HCC-2998 colon was 3.24 µM; with NCI-H460 lung it was 26.7 µM; in the assay with UACC-62 melanoma, 3.12 µM.

For the compound `CCc1cccc(CC)c1NC(=O)C1=C(C)NC(C)=C(C(=O)Nc2c(CC)cccc2CC)C1c1ccc([N+](=O)[O-])cc1`, the TGI in the assay with M14 melanoma was 42.5 µM; with K-562 leukemia it was 93.5 µM; with KM12 colon, 48.8 µM; with SK-OV-3 ovarian it was 96.4 µM; in the assay on NCI-H226 lung it was > 100 µM; in the assay on HCC-2998 colon it was > 100 µM. Besides, the TGI with NCI-H460 lung amounted to 45 µM.

Turning to `O=C(Nc1cccc(O)c1)C(=O)C(C(=O)c1ccc(Cl)c(Cl)c1)C1OC(=O)c2ccccc21` (centres undefined), the TGI came out at 37.1 µM in the assay on M14 melanoma; 48.9 µM in the assay on K-562 leukemia; 41.4 µM in the assay with KM12 colon; 51.1 µM with SK-OV-3 ovarian; 21.9 µM in the assay with NCI-H226 lung; 29.2 µM in the assay on HCC-2998 colon. Also, the TGI in the assay on NCI-H460 lung was 27.5 µM; in the assay on UACC-62 melanoma, 31.8 µM.

`CCc1cc(CCC(=O)Nc2c(C)cccc2C)[nH]n1`: the TGI in the assay on M14 melanoma, in the assay on K-562 leukemia, in the assay on KM12 colon, with SK-OV-3 ovarian, in the assay with NCI-H226 lung and in the assay on HCC-2998 colon was > 100 µM throughout. The TGI in the assay on NCI-H460 lung and in the assay with UACC-62 melanoma was > 100 µM in each case.

In the case of `CN(C)c1nc(=Nc2cccc(Cl)c2)ss1`, the TGI was 28.4 µM with M14 melanoma; 41.8 µM in the assay with K-562 leukemia; 43.7 µM in the assay with KM12 colon; > 100 µM with SK-OV-3 ovarian; > 100 µM in the assay on NCI-H226 lung; 47.9 µM with HCC-2998 colon. Further, the TGI in the assay on NCI-H460 lung is 46.3 µM; with UACC-62 melanoma, 23.4 µM.

`COC(=O)C(Cc1nc2ccccc2[nH]c1=O)C(=O)C(=O)Nc1ccc([N+](=O)[O-])cc1[N+](=O)[O-]` (centres undefined): the TGI was 32.4 µM in the assay with M14 melanoma; > 100 µM in the assay with K-562 leukemia; 30.1 µM in the assay with KM12 colon; 64.6 µM in the assay with SK-OV-3 ovarian; 32.1 µM with NCI-H226 lung; 33.2 µM with HCC-2998 colon. Also, the TGI came out at 49.2 µM in the assay with NCI-H460 lung and 38.9 µM in the assay with UACC-62 melanoma.
